Experiments:
[1] = target: Stimulator of interferon genes protein (Homo sapiens, UniProt Q86WV6, G230A/R293Q/R71H); assay: Inhibition of cGAMP-induced STING HAQ mutant transfected in human THP1-Blue ISG cells preincubated with compound for 6 hrs followed by cGAMP addition and measured after 18 hrs by QUANTI-Blue based microplate reader analysis; assay type: cell-based
[2] = Cytotoxicity against human THP1-Blue ISG cells assessed as inhibition of cell growth at 10 uM incubated for 24 hrs by MTS assay relative to control; assay type: toxicity, cell-based
[3] = Metabolic stability in mouse plasma assessed as half life in presence of NADPH by LC-MS/MS analysis; assay type: ADME, cell-free

Stimulator of interferon genes protein, sequence (Q86WV6 whole entry R71H/G230A/R293Q): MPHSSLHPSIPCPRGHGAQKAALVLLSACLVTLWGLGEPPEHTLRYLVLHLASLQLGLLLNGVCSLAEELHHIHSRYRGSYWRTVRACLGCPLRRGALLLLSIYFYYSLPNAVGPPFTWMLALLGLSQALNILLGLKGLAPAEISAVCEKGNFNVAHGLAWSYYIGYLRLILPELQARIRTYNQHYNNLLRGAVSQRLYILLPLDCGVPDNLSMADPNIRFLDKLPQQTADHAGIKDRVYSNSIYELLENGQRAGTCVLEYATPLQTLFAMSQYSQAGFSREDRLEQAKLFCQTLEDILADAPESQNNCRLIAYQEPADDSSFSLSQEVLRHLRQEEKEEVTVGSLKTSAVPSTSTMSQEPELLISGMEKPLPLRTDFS

For `CC(C)(C)c1ccc(N2C(=O)c3ccccc3C(C(N)=O)C2c2ccc3c(c2)C=C(c2ccc(C(=O)Nc4ccc(O)c(NS(C)(=O)=O)c4)cc2)S3(=O)=O)cc1Cl` (configuration not stated), the IC50 [1] was over 10000 nM and the inhibition at 24 h, 10 µM [2] was 36.1%.

`CC(C)(C)c1ccc(N2C(=O)c3ccccc3C(C(N)=O)C2c2ccc(Oc3ccc(C(=O)Nc4cc(F)c(O)c(F)c4)cc3)cc2)cc1Cl` (configuration not stated) gave an IC50 [1] of 3200 nM and an inhibition at 24 h, 10 µM [2] of 44.5%.

Work on `CCS(=O)(=O)Nc1cc(NC(=O)c2ccc(-c3ccc4oc(C5C(C(N)=O)c6ccccc6C(=O)N5c5ccc(C(C)(C)C)c(Cl)c5)cc4c3)cc2)ccc1O` (configuration not stated) yielded a half-life [3] of over 4 h, an IC50 [1] of 200 nM and an inhibition at 24 h, 10 µM [2] of 11.1%.

Compound `CC(C)(C)c1ccc(N2C(=O)c3ccccc3C(C(N)=O)C2c2cc3cc(-c4ncc(C(=O)Nc5ccc(O)c(NS(C)(=O)=O)c5)cn4)ccc3o2)cc1Cl` (configuration not stated) has an IC50 [1] of over 10000 nM and an inhibition at 24 h, 10 µM [2] of 20.4%.

With `CC(C)(C)c1ccc(N2C(=O)c3ccccc3C(C(N)=O)C2c2cc3cc(-c4ccc(C(=O)Nc5ccc(F)c(NS(C)(=O)=O)c5)cc4)ccc3o2)cc1Cl` (configuration not stated) the IC50 [1] was over 10000 nM and the inhibition at 24 h, 10 µM [2] was 26.8%.

In the case of `CC(C)(C)c1ccc(N2C(=O)c3ccccc3C(C(N)=O)C2c2ccc(Oc3ccc(C(=O)Nc4ccc(O)cc4)cc3)cc2)cc1Cl` (configuration not stated), the IC50 [1] is reported as over 10000 nM and the inhibition at 24 h, 10 µM [2] is reported as 29.4%.

`CS(=O)(=O)Nc1cc(NC(=O)c2ccc(-c3ccc4oc(C5C(C(N)=O)c6ccccc6C(=O)N5c5ccccc5)cc4c3)cc2)ccc1O` (configuration not stated) gave an IC50 [1] of 3600 nM and an inhibition at 24 h, 10 µM [2] of 23%.

Work on `CC(C)(C)c1ccc(N2C(=O)c3ccccc3C(C(N)=O)C2c2cc3cc(-c4ccc(C(=O)Nc5ccc(O)c(NS(C)(=O)=O)c5)cc4)ccc3s2)cc1Cl` (configuration not stated) yielded an IC50 [1] of 440 nM and an inhibition at 24 h, 10 µM [2] of 15.9%.

Work on `CC(C)(C)c1ccc(N2C(=O)c3ccccc3C(C(N)=O)C2c2ccc(Oc3ccc(C(=O)Nc4ccc(O)c(NS(C)(=O)=O)c4)cc3)cc2)cc1Cl` (configuration not stated) yielded an IC50 [1] of over 10000 nM and an inhibition at 24 h, 10 µM [2] of 33.8%.

With `CS(=O)(=O)Nc1cc(NC(=O)c2ccc(-c3ccc4oc(C5C(C(N)=O)c6ccccc6C(=O)N5c5ccc(C6CC6)c(Cl)c5)cc4c3)cc2)ccc1O` (configuration not stated) the IC50 [1] was 110 nM and the inhibition at 24 h, 10 µM [2] was 61.5%.

`CC(C)(C)c1ccc(N2C(=O)c3cc(F)ccc3C(C(N)=O)C2c2cc3cc(-c4ccc(C(=O)Nc5ccc(O)c(NS(C)(=O)=O)c5)cc4)ccc3s2)cc1Cl` (configuration not stated) showed an IC50 [1] of 450 nM and an inhibition at 24 h, 10 µM [2] of 23.2%.

In the case of `CS(=O)(=O)Nc1cc(NC(=O)c2ccc(-c3ccc4oc(C5C(C(N)=O)c6ccccc6C(=O)N5c5ccc(C6CC6)cc5)cc4c3)cc2)ccc1O` (configuration not stated), the IC50 [1] is reported as 270 nM and the inhibition at 24 h, 10 µM [2] is reported as 25.6%.

Compound `CC(C)(C)c1ccc(N2C(=O)c3cc(F)ccc3C(C(N)=O)C2c2cc3cc(-c4ccc(C(=O)Nc5ccc(O)c(NC(=O)C(F)(F)F)c5)cc4)ccc3s2)cc1Cl` (configuration not stated) has an IC50 [1] of 2300 nM and an inhibition at 24 h, 10 µM [2] of 12.5%.

In the case of `CC(C)(C)c1ccc(N2C(=O)c3ccccc3C(C(N)=O)C2c2cc3cc(-c4ccc(C(=O)NC5CCN(S(C)(=O)=O)CC5)cc4)ccc3o2)cc1Cl` (configuration not stated), the IC50 [1] is reported as over 10000 nM and the inhibition at 24 h, 10 µM [2] is reported as 35.2%.

For `CC(C)(C)c1ccc(N2C(=O)c3ccccc3C(C(N)=O)C2c2cc3cc(-c4ccc(C(=O)Nc5ccc(O)c(NS(=O)(=O)C(F)(F)F)c5)cc4)ccc3o2)cc1Cl` (configuration not stated), the IC50 [1] was over 10000 nM and the inhibition at 24 h, 10 µM [2] was 20.2%.

`CC(C)(C)c1ccc(N2C(=O)c3ccccc3C(C(N)=O)C2c2cc3cc(-c4ccc(C(=O)Nc5ccc(O)c(NS(C)(=O)=O)c5)cc4)ccc3o2)cc1F` (configuration not stated) gave an IC50 [1] of 100 nM and an inhibition at 24 h, 10 µM [2] of 55.6%.

Work on `CC(C)(C)c1ccc(N2C(=O)c3ccccc3C(C(N)=O)C2c2cc3cc(-c4ccc(C(=O)N[C@H]5CC[C@@H](O)CC5)cc4)ccc3o2)cc1Cl` (some centres not stated) yielded an IC50 [1] of over 10000 nM and an inhibition at 24 h, 10 µM [2] of 59.6%.

With `CC(=O)Nc1cc(NC(=O)c2ccc(Oc3ccc(C4C(C(N)=O)c5ccccc5C(=O)N4c4ccc(C(C)(C)C)c(Cl)c4)cc3)cc2)ccc1O` (configuration not stated) the IC50 [1] was 2500 nM and the inhibition at 24 h, 10 µM [2] was 67.2%.

For `CC(C)(C)c1ccc(N2C(=O)c3ccccc3C(C(N)=O)C2c2cc3cc(-c4ccc(C(=O)Nc5ccc(O)c(NC(=O)C(F)(F)F)c5)cc4)ccc3o2)cc1Cl` (configuration not stated), the IC50 [1] was 5800 nM and the inhibition at 24 h, 10 µM [2] was 4.9%.

In the case of `CC(C)(C)c1ccc(N2C(=O)c3ccccc3C(C(N)=O)C2c2ccc3oc(-c4ccc(C(=O)Nc5ccc(O)c(NS(C)(=O)=O)c5)cc4)cc3c2)cc1Cl` (configuration not stated), the IC50 [1] is reported as 2800 nM and the inhibition at 24 h, 10 µM [2] is reported as 14%.

`CC(C)(C)c1ccc(N2C(=O)c3ccccc3C(C(N)=O)C2c2cc3cc(-c4ccc(C(=O)Nc5ccc(N)c(NS(C)(=O)=O)c5)cc4)ccc3o2)cc1Cl` (configuration not stated) showed an IC50 [1] of over 10000 nM and an inhibition at 24 h, 10 µM [2] of 28.5%.

Work on `CC(C)(C)c1ccc(N2C(=O)c3cc(F)ccc3C(C(N)=O)C2c2ccc3sc(-c4ccc(C(=O)Nc5ccc(O)c(NS(=O)(=O)C6CC6)c5)cc4)cc3c2)cc1Cl` (configuration not stated) yielded an IC50 [1] of over 10000 nM and an inhibition at 24 h, 10 µM [2] of 7.7%.

`CS(=O)(=O)Nc1cc(NC(=O)c2ccc(-c3ccc4oc(C5C(C(N)=O)c6ccccc6C(=O)N5c5ccc6c(c5)CCCC6)cc4c3)cc2)ccc1O` (configuration not stated) gave an IC50 [1] of 540 nM and an inhibition at 24 h, 10 µM [2] of 38.7%.

Compound `CC(C)(C)c1ccc(N2C(=O)c3ccccc3C(C(N)=O)C2c2cc3cc(-c4ccc(NC(=O)c5cc(O)cc(NS(C)(=O)=O)c5)cc4)ccc3s2)cc1Cl` (configuration not stated) has an IC50 [1] of over 10000 nM and an inhibition at 24 h, 10 µM [2] of 50.2%.

Compound `CC(=O)Nc1cc(NC(=O)c2ccc(Oc3ccc(C4C(C(N)=O)c5ccccc5C(=O)N4c4ccc(C(C)(C)C)c(Cl)c4)cc3)cc2)ccc1C` (configuration not stated) has an IC50 [1] of over 10000 nM and an inhibition at 24 h, 10 µM [2] of 11.6%.

Work on `CC(C)(C)c1ccc(N2C(=O)c3ccccc3C(C(N)=O)C2c2cc3cc(-c4ccc(C(=O)Nc5ccc(O)c(NS(C)(=O)=O)c5)cn4)ccc3o2)cc1Cl` (configuration not stated) yielded an IC50 [1] of 140 nM and an inhibition at 24 h, 10 µM [2] of 45.7%.

Work on `CC(C)(C)c1ccc(N2C(=O)c3ccccc3C(C(N)=O)C2c2ccc3sc(-c4ccc(C(=O)Nc5ccc(O)c(NS(C)(=O)=O)c5)cc4)cc3c2)cc1Cl` (configuration not stated) yielded an IC50 [1] of 180 nM and an inhibition at 24 h, 10 µM [2] of 3.9%.

Compound `CCC(=O)Nc1cc(NC(=O)c2ccc(Oc3ccc(C4C(C(N)=O)c5ccccc5C(=O)N4c4ccc(C(C)(C)C)c(Cl)c4)cc3)cc2)ccc1O` (configuration not stated) has an IC50 [1] of over 10000 nM and an inhibition at 24 h, 10 µM [2] of 7.5%.

In the case of `CC(C)(C)c1ccc(N2C(=O)c3ccccc3C(C(N)=O)C2c2ccc(Oc3ccc(C(=O)Nc4ccc(CO)c(NS(C)(=O)=O)c4)cc3)cc2)cc1Cl` (configuration not stated), the IC50 [1] is reported as over 10000 nM and the inhibition at 24 h, 10 µM [2] is reported as 0%.

`CC(C)(C)c1ccc(N2C(=O)c3ccccc3C(C(N)=O)C2c2ccc(Oc3ccc(C(=O)Nc4ccc(NS(C)(=O)=O)cc4)cc3)cc2)cc1Cl` (configuration not stated) showed an IC50 [1] of over 10000 nM and an inhibition at 24 h, 10 µM [2] of 13.7%.

`CN(c1ccc(C(=O)Nc2ccc(O)c(NS(C)(=O)=O)c2)cc1)c1ccc(C2C(C(N)=O)c3ccccc3C(=O)N2c2ccc(C(C)(C)C)c(Cl)c2)cc1` (configuration not stated) showed an IC50 [1] of 820 nM and an inhibition at 24 h, 10 µM [2] of 1.2%.

`CC(C)(C)c1ccc(N2C(=O)c3ccccc3C(C(N)=O)C2c2cc3cc(-c4ccc(C(=O)N[C@H]5CC[C@H](O)CC5)cc4)ccc3o2)cc1Cl` (some centres not stated) showed an IC50 [1] of over 10000 nM and an inhibition at 24 h, 10 µM [2] of 67%.

With `CC(C)(C)c1ccc(N2C(=O)c3cc(F)ccc3C(C(N)=O)C2c2ccc3sc(-c4ccc(C(=O)Nc5ccc(O)c(C(N)=O)c5)cc4)cc3c2)cc1Cl` (configuration not stated) the IC50 [1] was over 10000 nM and the inhibition at 24 h, 10 µM [2] was 14.7%.

`CC(C)(C)c1ccc(N2C(=O)c3ccccc3C(C(=O)O)C2c2cc3cc(-c4ccc(C(=O)Nc5ccc(O)c(NS(C)(=O)=O)c5)cc4)ccc3s2)cc1Cl` (configuration not stated) gave an IC50 [1] of over 10000 nM and an inhibition at 24 h, 10 µM [2] of 0%.

For `CS(=O)(=O)Nc1cc(NC(=O)c2ccc(-c3ccc4oc(C5C(C(N)=O)c6ccccc6C(=O)N5c5ccc(Br)c(Cl)c5)cc4c3)cc2)ccc1O` (configuration not stated), the IC50 [1] was 270 nM and the inhibition at 24 h, 10 µM [2] was 65.1%.

`CC(C)(C)c1ccc(N2C(=O)c3cc(F)ccc3C(C(N)=O)C2c2ccc3sc(-c4ccc(C(=O)Nc5ccc(O)c(NS(C)(=O)=O)c5)cc4)cc3c2)cc1Cl` (configuration not stated) showed an IC50 [1] of 950 nM and an inhibition at 24 h, 10 µM [2] of 7.7%.

`CC(C)(C)c1ccc(N2C(=O)c3cc(F)ccc3C(C(N)=O)C2C2=Cc3cc(-c4ccc(C(=O)Nc5ccc(O)c(NS(C)(=O)=O)c5)cc4)ccc3S2(=O)=O)cc1Cl` (configuration not stated) gave an IC50 [1] of 720 nM and an inhibition at 24 h, 10 µM [2] of 12.7%.

With `CC(C)(C)c1ccc(N2C(=O)c3ccccc3C(C(N)=O)C2c2cc3cc(-c4ccc(C(=O)Nc5cc(-c6ccco6)n[nH]5)cc4)ccc3o2)cc1Cl` (configuration not stated) the IC50 [1] was over 10000 nM and the inhibition at 24 h, 10 µM [2] was 17.8%.

Work on `CC(C)(C)c1ccc(N2C(=O)c3ccccc3C(C(N)=O)C2c2ccc(Nc3ccc(C(=O)Nc4ccc(O)c(NS(C)(=O)=O)c4)cc3)cc2)cc1Cl` (configuration not stated) yielded an IC50 [1] of 3200 nM and an inhibition at 24 h, 10 µM [2] of 0%.

In the case of `CC(C)(C)c1ccc(N2C(=O)c3cc(F)ccc3C(C(N)=O)C2c2ccc3sc(-c4ccc(C(=O)Nc5ccc(O)c(NS(C)(=O)=O)c5)cc4F)cc3c2)cc1Cl` (configuration not stated), the IC50 [1] is reported as 800 nM and the inhibition at 24 h, 10 µM [2] is reported as 11.1%.

With `CN1C(=O)c2ccccc2C(C(N)=O)C1c1cc2cc(-c3ccc(C(=O)Nc4ccc(O)c(NS(C)(=O)=O)c4)cc3)ccc2o1` (configuration not stated) the IC50 [1] was 6500 nM and the inhibition at 24 h, 10 µM [2] was 57.9%.

`CC(C)(C)c1ccc(N2C(=O)c3ccccc3C(C(N)=O)C2c2ccc(Oc3ccc(C(=O)Nc4cccc(NS(C)(=O)=O)c4)cc3)cc2)cc1Cl` (configuration not stated) showed an IC50 [1] of over 10000 nM and an inhibition at 24 h, 10 µM [2] of 10.5%.

Work on `CC(C)(C)c1ccc(N2C(=O)c3ccccc3C(C(N)=O)C2c2cc3cc(-c4ccc(C(=O)Nc5cc(O)cc(NS(C)(=O)=O)c5)cc4)ccc3o2)cc1Cl` (configuration not stated) yielded an IC50 [1] of over 10000 nM and an inhibition at 24 h, 10 µM [2] of 46.2%.

From ChEMBL document CHEMBL6182913, “Design of Potent Small-Molecule Stimulator of Interferon Gene Inhibitor and Stimulator of Interferon Gene Mutant-Specific Degrader” (J Med Chem, 2025)
